Assays:
Experiment in all cases: Biological Example 2 glasshouse assay for herbicidal activity
Format in all cases: in vivo
[1] = tested on: Alopecurus myosuroides (ALOMY); settings: post-emergence, 360 h, 14 or 15 DAA, 0.2% v/v X-77, read-out: percentage phytotoxicity ALOMY
Description: (§1) Seeds of a variety of monocotyledonous and dicotyledonous test plants are sown in standard soil in pots. The plants are cultivated for one day (for pre-emergence) or for about 12 days (range=10-13 days) (for post-emergence) under controlled conditions in a glasshouse (warm climate species at 24/18° C., cool climate species at 20/16° C., both at day/night; 16 hours light; 65% humidity).
(§2) An “instant formulation”, known as the “IF50”, containing 50 g/litre (i.e. 5% w/v) of the “technical” (i.e. unformulated) active ingredient is prepared by dissolving the active ingredient in a mixture of organic solvents and emulsifier, details of which are provided in the Table below. This IF50 is then mixed with a small, variable amount of acetone to aid dissolution, before addition of a 0.2% v/v aqueous solution of the adjuvant X-77 (which is a mixture of alkyl aryl polyoxyethylene glycols and free fatty acids in isopropanol, CAS Registry number 11097-66-8), as the aqueous diluent, to form an aqueous spray solution which contains a predetermined concentration of the active ingredient (which varies depending on the application rate of the active ingredient to the plants) and 0.2% v/v of the adjuvant X-77. This aqueous spray solution is then sprayed onto the plants, after one day's cultivation (for pre-emergence) or after about 12 days' cultivation (for post-emergence).
(§3) The test plants are then grown on, in a glasshouse (greenhouse) under controlled conditions (at either 24/18° C. or 20/16° C. (day/night) as mentioned above; 16 hours light; 65% humidity) and are watered twice daily. Either 14 or 15 days after application of the herbicide (14 or 15 DAA) (for post-emergence), or 20 days after application of the herbicide (20 DAA) (for pre-emergence), the test plants are evaluated visually, and an assessed percentage phytotoxicity score is given for each herbicidal application on each plant species (where 100%=total damage to plant; 0%=no damage to plant).
(§4) Some of the typical test plants are as follows: • Cool climate crop plants: Triticum aestivum (TRZAW, winter wheat), Brassica napus (BRSNN, rape, also called oilseed rape or rapeseed), Beta vulgaris (BEAVA, sugarbeet). • Warm climate crop plants: Glycine max (GLXMA, soybean). • Cool climate (“cool season”) grassy monocotyledonous weeds: Alopecurus myosuroides (ALOMY), Avena fatua (AVEFA), Lolium perenne (LOLPE), Poa annua (POAAN), Bromus tectorum (BROTE). • Warm climate (“warm season”) grassy monocotyledonous weeds: Setaria faberi (SETFA), SORVU (Sorghum bicolor (L.) Moench ssp. Bicolor, or Sorghum vulgare Pers.), Digitaria sanguinalis (DIGSA), Echinochloa crus-galli (ECHCG), Brachiaria plantaginea (BRAPL); Zea mays (ZEAMX, corn, maize, e.g. volunteer corn).

[2] = tested on: Avena fatua (AVEFA); settings: post-emergence, 360 h, 14 or 15 DAA, 0.2% v/v X-77, read-out: percentage phytotoxicity AVEFA
Description: as §1, §2, §3, §4

[3] = tested on: Beta vulgaris (BEAVA, sugarbeet); settings: post-emergence, 360 h, 14 or 15 DAA, 0.2% v/v X-77, read-out: percentage phytotoxicity BEAVA
Description: as §1, §2, §3, §4

[4] = tested on: Brachiaria plantaginea (BRAPL); settings: Urochloa plantaginea, post-emergence, 360 h, 14 or 15 DAA, 0.2% v/v X-77, read-out: percentage phytotoxicity BRAPL
Description: as §1, §2, §3, §4

[5] = tested on: Brassica napus (BRSNN, rape); settings: Brassica napus, 360 h, post-emergence, 14 or 15 DAA, 0.2% v/v X-77, read-out: percentage phytotoxicity BRSNN
Description: as §1, §2, §3, §4

[6] = tested on: Digitaria sanguinalis (DIGSA); settings: post-emergence, 360 h, 14 or 15 DAA, 0.2% v/v X-77, read-out: percentage phytotoxicity DIGSA
Description: as §1, §2, §3, §4

[7] = tested on: Echinochloa crus-galli (ECHCG); settings: Echinochloa crus-galli, post-emergence, 360 h, 14 or 15 DAA, 0.2% v/v X-77, read-out: percentage phytotoxicity ECHCG
Description: as §1, §2, §3, §4

[8] = tested on: Glycine max (GLXMA, soybean); settings: post-emergence, 360 h, 14 or 15 DAA, 0.2% v/v X-77, read-out: percentage phytotoxicity GLXMA
Description: as §1, §2, §3, §4

[9] = tested on: Lolium perenne (LOLPE); settings: Lolium perenne, post-emergence, 360 h, 14 or 15 DAA, 0.2% v/v X-77, read-out: percentage phytotoxicity LOLPE
Description: as §1, §2, §3, §4

[10] = tested on: SORVU (Sorghum bicolor (L.) Moench ssp. Bicolor, or Sorghum vulgare Pers.); settings: post-emergence, 360 h, 14 or 15 DAA, 0.2% v/v X-77, read-out: percentage phytotoxicity SORVU
Description: as §1, §2, §3, §4

[11] = tested on: Setaria faberi (SETFA); settings: post-emergence, 360 h, 14 or 15 DAA, 0.2% v/v X-77, read-out: percentage phytotoxicity SETFA
Description: as §1, §2, §3, §4

[12] = tested on: Triticum aestivum (TRZAW, winter wheat); settings: post-emergence, 360 h, 14 or 15 DAA, 0.2% v/v X-77, read-out: percentage phytotoxicity TRZAW
Description: as §1, §2, §3, §4

[13] = tested on: Zea mays (ZEAMX, corn, maize, e.g. volunteer corn); settings: Zea mays, post-emergence, 360 h, 14 or 15 DAA, 0.2% v/v X-77, read-out: percentage phytotoxicity ZEAMX
Description: as §1, §2, §3, §4

| SMILES | pest or weed control at 30 g/ha [1] | pest or weed control at 250 g/ha [1] | pest or weed control at 30 g/ha [2] | pest or weed control at 250 g/ha [2] | plant injury at 30 g/ha [3] | plant injury at 250 g/ha [3] | pest or weed control at 30 g/ha [4] | pest or weed control at 250 g/ha [4] | plant injury at 30 g/ha [5] | plant injury at 250 g/ha [5] | pest or weed control at 30 g/ha [6] | pest or weed control at 250 g/ha [6] | pest or weed control at 30 g/ha [7] | pest or weed control at 250 g/ha [7] | plant injury at 30 g/ha [8] | plant injury at 250 g/ha [8] | pest or weed control at 30 g/ha [9] | pest or weed control at 250 g/ha [9] | pest or weed control at 30 g/ha [10] | pest or weed control at 250 g/ha [10] | also measured |
| --- | --- | --- | --- | --- | --- | --- | --- | --- | --- | --- | --- | --- | --- | --- | --- | --- | --- | --- | --- | --- | --- |
| CC#Cc1cc(F)c(C2C(=O)C3CCC(C3)C2=O)c(OC(F)F)c1 (centres unmarked) [Compound A7] | 30% | 70% | 10% | 40% | 0% | 10% | 90% | 100% | 30% | 60% | 90% | 100% | 90% | 100% | 20% | 20% | 0% | 40% | 50% | 100% | pest or weed control at 125 g/ha ([1]; 125 g/ha): 70%; pest or weed control at 125 g/ha ([2]; 125 g/ha): 30%; plant injury at 125 g/ha ([3]; 125 g/ha): 0%; pest or weed control at 125 g/ha ([4]; 125 g/ha): 100%; plant injury at 125 g/ha ([5]; 125 g/ha): 50%; pest or weed control at 125 g/ha ([6]; 125 g/ha): 100%; pest or weed control at 125 g/ha ([7]; 125 g/ha): 100%; plant injury at 125 g/ha ([8]; 125 g/ha): 20%; pest or weed control at 125 g/ha ([9]; 125 g/ha): 30%; pest or weed control at 125 g/ha ([10]; 125 g/ha): 90%; pest or weed control at 30 g/ha [11]: 60%; pest or weed control at 125 g/ha ([11]; 125 g/ha): 90%; pest or weed control at 250 g/ha [11]: 90%; plant injury at 30 g/ha [12]: 30%; plant injury at 125 g/ha ([12]; 125 g/ha): 70%; plant injury at 250 g/ha [12]: 70%; pest or weed control at 30 g/ha [13]: 80%; pest or weed control at 125 g/ha ([13]; 125 g/ha): 90%; pest or weed control at 250 g/ha [13]: 100% |
| CC#Cc1cc(F)c(C2=C(OC(=O)C(C)(C)C)C3CCC(C3)C2=O)c(OC)c1 (centres unmarked) [Compound P1] | 80% | 90% | 80% | 90% | 0% | 0% | 100% | 90% | 10% | 80% | 90% | 100% | 100% | 100% | 0% | 20% | 100% | 100% | 100% | 100% | pest or weed control at 30 g/ha [11]: 80%; pest or weed control at 250 g/ha [11]: 90%; plant injury at 30 g/ha [12]: 60%; plant injury at 250 g/ha [12]: 90%; pest or weed control at 30 g/ha [13]: 100%; pest or weed control at 250 g/ha [13]: 100% |
